# Experimental data reported in patent US20240208986A1, “PHENYL AZEPINES AS RIPK1 INHIBITORS AND METHODS OF USE THEREOF” (Merck Sharp & Dohme LLC, priority 2021, published 2024).
# Target: RIPK1 (recombinant GST-RIPK1 kinase domain, residues 1-327) (Homo sapiens (Human), UniProt Q13546)
# Experiment: RIPK1-ADP-Glo Enzymatic Assay
# Format: biochemical
# Conditions: 25 nM GST-RIPK1, 300 μM ATP, 3 μM dephosphorylated-MBP; 30 minutes pre-incubation, 150 minutes reaction; ten-point titration
# Procedure, shortened: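 GST-tagged RIPK1 (25 nM) was preincubated 30 min with compound at ambient temperature in HEPES pH 7.3 buffer, then run 150 min with 300 μM ATP and 3 μM dephosphorylated MBP. ADP was read by ADP-Glo luminescence. EC50 came from 10-point, 1:3 titrations (top 100000 nM, 1% DMSO) fitted to a four-parameter model.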
# Chain of RIPK1 (recombinant GST-RIPK1 kinase domain, residues 1-327) (Q13546 1-327): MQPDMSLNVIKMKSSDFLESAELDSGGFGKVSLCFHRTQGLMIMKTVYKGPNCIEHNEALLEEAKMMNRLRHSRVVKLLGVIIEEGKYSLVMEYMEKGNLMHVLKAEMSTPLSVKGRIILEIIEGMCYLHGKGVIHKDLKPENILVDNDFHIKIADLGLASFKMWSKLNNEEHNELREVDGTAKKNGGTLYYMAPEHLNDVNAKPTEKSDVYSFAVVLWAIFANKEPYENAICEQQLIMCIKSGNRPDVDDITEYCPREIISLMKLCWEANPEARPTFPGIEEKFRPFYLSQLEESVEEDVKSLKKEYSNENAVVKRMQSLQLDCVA
row,Compound,IC50 [nM]
1,"CC(C)(C(=O)N1C[C@@H]2C[C@H]1c1cc(F)cc(C#N)c1O2)C(F)F [Compound 2-11, (2S,5S)-4-(3,3-difluoro-2,2-dimethylpropanoyl)-7-fluoro-2,3,4,5-tetrahydro-2,5-methano-1,4-benzoxazepine-9-carbonitrile]",26
2,"CC(F)(F)C(C)(C)C(=O)N1C[C@@H]2C[C@H]1c1cccc(F)c1O2 [Compound 2-12, 3,3-difluoro-1-[(2S,5S)-9-fluoro-2,3-dihydro-2,5-methano-1,4-benzoxazepin-4(5H)-yl]-2,2-dimethylbutan-1-one]",20
3,"CC(F)(F)C(C)(C)C(=O)N1C[C@@H]2C[C@H]1c1cc(F)ccc1O2 [Compound 2-13, 3,3-difluoro-1-[(2S,5S)-7-fluoro-2,3-dihydro-2,5-methano-1,4-benzoxazepin-4(5H)-yl]-2,2-dimethylbutan-1-one]",23
4,"O=C(N1C[C@@H]2C[C@H]1c1cc(F)ccc1O2)C12CCC(CC1)C2 [Compound 2-14, (bicyclo[2.2.1]heptan-1-yl)[(2S,5S)-7-fluoro-2,3-dihydro-2,5-methano-1,4-benzoxazepin-4(5H)-yl]methanone]",15
5,"O=C(N1C[C@@H]2C[C@H]1c1cccc(F)c1O2)C12CCC(CC1)C2 [Compound 2-15, (bicyclo[2.2.1]heptan-1-yl)[(2S,5S)-9-fluoro-2,3-dihydro-2,5-methano-1,4-benzoxazepin-4(5H)-yl]methanone]",24
6,"CC(F)(F)C(C)(C)C(=O)N1C[C@@H]2C[C@H]1c1ccc(Cl)cc1O2 [Compound 2-16, 1-((2S,5S)-8-chloro-2,3-dihydro-2,5-methanobenzo[f][1,4]oxaze-pin-4(5H)-yl)-3,3-difluoro-2,2-dimethylbutan-1-one]",35
7,"CC(C)(C(=O)N1C[C@@H]2C[C@H]1c1cccc(C#N)c1O2)C(F)F [Compound 2-19, (2S,5S)-4-(3,3-difluoro-2,2-dimethylpropanoyl)-2,3,4,5-tetrahydro-2,5-methano-1,4-benzoxazepine-9-carbonitrile]",18
8,"CC(C)(C(=O)N1C[C@@H]2C[C@H]1c1cccc(Cl)c1O2)C(F)F [Compound 2-20, 1-[(2S,5S)-9-chloro-2,3-dihydro-2,5-methano-1,4-benzoxazepin-4(5H)-yl]-3,3-difluoro-2,2-dimethylpropan-1-one]",52
9,"CC(C)(C(=O)N1C[C@@H]2C[C@H]1c1ccc(Cl)cc1O2)C(F)F [Compound 2-21, 1-[(2S,5S)-8-chloro-2,3-dihydro-2,5-methano-1,4-benzoxazepin-4(5H)-yl]-3,3-difluoro-2,2-dimethylpropan-1-one]",37
10,"CC(C)(C(=O)N1C[C@@H]2C[C@H]1c1ccc(C#N)cc1O2)C(F)F [Compound 2-22, (2S,5S)-4-(3,3-difluoro-2,2-dimethylpropanoyl)-2,3,4,5-tetrahydro-2,5-methano-1,4-benzoxazepine-8-carbonitrile]",388
11,"CC(C)(CC#N)C(=O)N1C[C@@H]2C[C@H]1c1ccc(Cl)cc1O2 [Compound 2-23, 4-((2S,5S)-8-chloro-2,3-dihydro-2,5-methanobenzo[f][1,4]oxaze-pin-4(5H)-yl)-3,3-dimethyl-4-oxobutanenitrile]",49
12,"CC(C)(C(=O)N1C[C@@H]2C[C@H]1c1cc(F)cc(Cl)c1O2)C(F)F [Compound 2-24, 1-[(2S,5S)-9-chloro-7-fluoro-2,3-dihydro-2,5-methano-1,4-benzoxazepin-4(5H)-yl]-3,3-difluoro-2,2-dimethylpropan-1-one]",30
13,"N#Cc1cc(F)cc2c1O[C@H]1C[C@@H]2N(C(=O)C23CCC(F)(CC2)C3)C1 [Compound 2-25, (2S,5S)-7-fluoro-4-(4-fluorobicyclo[2.2.1]heptane-1-carbonyl)-2,3,4,5-tetrahydro-2,5-methano-1,4-benzoxazepine-9-carbonitrile]",10
14,"CC(C)(C(=O)N1C[C@@H]2C[C@H]1c1cc(F)cc(F)c1O2)C(F)F [Compound 2-26, 1-[(2S,5S)-7,9-difluoro-2,3-dihydro-2,5-methano-1,4-benzoxazepin-4(5H)-yl]-3,3-difluoro-2,2-dimethylpropan-1-one]",12
15,"CC(C)(CC#N)C(=O)N1C[C@@H]2C[C@H]1c1cc(F)cc(F)c1O2 [Compound 2-27, 4-[(2S,5S)-7,9-difluoro-2,3-dihydro-2,5-methano-1,4-benzoxazepin-4(5H)-yl]-3,3-dimethyl-4-oxobutanenitrile]",16
16,"N#CCC1(C(=O)N2C[C@@H]3C[C@H]2c2cccc(F)c2O3)CCC1 [Compound 2-28, {1-[(2S,5S)-9-fluoro-2,3-dihydro-2,5-methano-1,4-benzoxazepine-4(5H)-carbonyl]cyclobutyl} acetonitrile]",809
17,"CC1(C(=O)N2C[C@@H]3C[C@H]2c2cc(F)ccc2O3)CC(C#N)C1 (stereo partly drawn) [Compound 2-29, 3-((2S,5S)-7-fluoro-2,3,4,5-tetrahydro-2,5-methanobenzo[f][1,4]oxaze-pine-4-carbonyl)-3-methylcyclobutane-1-carbonitrile]",55
18,"CC1(C(=O)N2C[C@@H]3C[C@H]2c2cccc(F)c2O3)CC(C#N)C1 (stereo partly drawn) [Compound 2-30, 3-((2S,5S)-9-fluoro-2,3,4,5-tetrahydro-2,5-methanobenzo[f][1,4]oxaze-pine-4-carbonyl)-3-methylcyclobutane-1-carbonitrile]",75
19,"C[C@@H]1[C@@H]2C[C@@H](c3ccccc3O2)N1C(=O)C(C)(C)C [Compound 2-31, 2,2-dimethyl-1-((2S,3R,5S)-3-methyl-2,3-dihydro-2,5-methanobenzo[f][1,4]oxaze-pin-4(5H)-yl)propan-1-one]",132
20,"O=C(N1C[C@@H]2C[C@H]1c1cc(Cl)ccc1O2)C12CCC(F)(CC1)C2 [Compound 2-32, ((2S,5S)-7-chloro-2,3-dihydro-2,5-methanobenzo[f][1,4]oxaze-pin-4(5H)-yl)(4-fluorobicyclo[2.2.1]heptan-1-yl)methanone]",39
21,"O=C(N1C[C@@H]2C[C@H]1c1ccc(Cl)cc1O2)C12CCC(F)(CC1)C2 [Compound 2-33, ((2S,5S)-8-chloro-2,3-dihydro-2,5-methanobenzo[f][1,4]oxaze-pin-4(5H)-yl)(4-fluorobicyclo[2.2.1]heptan-1-yl)methanone]",26
22,"N#Cc1ccnc(N2CCC(F)(C(=O)N3C[C@@H]4C[C@H]3c3cc(F)cc(F)c3O4)CC2)n1 [Compound 2-34, 2-(4-((2S,5S)-7,9-difluoro-2,3,4,5-tetrahydro-2,5-methanobenzo[f][1,4]oxaze-pine-4-carbonyl)-4-fluoropiperidin-1-yl)pyrimidine-4-carbonitrile]",27
23,"O=C(N1C[C@@H]2C[C@H]1c1cc(F)cc(F)c1O2)C12CCC(F)(CC1)C2 [Compound 2-35, ((2S,5S)-7,9-difluoro-2,3-dihydro-2,5-methanobenzo[f][1,4]oxaze-pin-4(5H)-yl)(4-fluorobicyclo[2.2.1]heptan-1-yl)methanone]",12
24,"N#CC12CCC(C(=O)N3C[C@@H]4C[C@H]3c3cc(F)cc(F)c3O4)(C1)C2 [Compound 2-36, 4-((2S,5S)-7,9-difluoro-2,3,4,5-tetrahydro-2,5-methanobenzo[f][1,4]oxaze-pine-4-carbonyl)bicyclo[2.1.1] hexane-1-carbonitrile]",19
25,"CC(C)(C)C(=O)N1C[C@H]2Cc3ccccc3[C@@H]1C2 [Compound 3-2, 2,2-dimethyl-1-((1S,4S)-1,3,4,5-tetrahydro-2H-1,4-methanobenzo[c]azepin-2-yl)propan-1-one]",2240
26,"CC(C)(CC#N)C(=O)N1C[C@H]2Cc3ccccc3[C@@H]1C2 [Compound 3-3, 3,3-dimethyl-4-oxo-4-((1S,4S)-1,3,4,5-tetrahydro-2H-1,4-methanobenzo[c]azepin-2-yl)butanenitrile]",1490
27,"CC(C)(C)C(=O)N1C[C@]2(C)C[C@H]1c1ccccc1O2 [Compound 3-5, 2,2-dimethyl-1-((2S,5S)-2-methyl-2,3-dihydro-2,5-methanobenzo[f][1,4]oxaze-pin-4(5H)-yl)propan-1-one]",17800
28,"CC(C)(C(=O)N1C[C@]2(C)C[C@H]1c1ccccc1O2)C(F)F [Compound 3-6, 3,3-difluoro-2,2-dimethyl-1-((2S,5S)-2-methyl-2,3-dihydro-2,5-methanobenzo[f][1,4]oxaze-pin-4(5H)-yl)propan-1-one]",14700
